In patent US10645922B2, “Methods and compositions for pest bait” (Dow AgroSciences LLC, priority 2015, dated 2020):
Entries after “also recorded” stand apart in the source; their conditions may differ.

Tested on: termites
Test: Two-way choice bioassay, filter paper consumption by termite workers
Type: in vivo, Reticulitermes flavipes
Details: FIG. 1A, FIG. 1B; series of experiments and validated tests
Protocol: Two-way choice bioassays are conducted with the granule formulation containing 1% 1-MCP in weight boats. Test materials are placed in weigh boats to prevent physical contact of termite workers with test material. Filter papers associated with 1-MCP are used to qualify consumption. Bioassay arenas are placed inside sealed plastic containers with open moisture sources to maintain high humidity for releasing 1-MCP from the granule formulation. […] The experiment results are also shown in Table 1, where negative control uses granules having 22% alpha-cyclodextrin+78% sodium bentonite.

For `CC1=CC1` [1-MCP, 1-methylcyclopropene], the “Filter paper consumption in presence of 1-MCP (in words)” value was “Significant higher consumption; also recorded: significantly increase”.
